Measurements published in ChEMBL document CHEMBL3991601, “The target landscape of clinical kinase drugs” (Science, 2017).
Active and inactive are the calls of the source.

Assays:
[1] = target: G protein-coupled receptor kinase 6 (Homo sapiens, UniProt P43250)
[2] = target: Serine/threonine-protein kinase 24 (Homo sapiens, UniProt Q9Y6E0)
[3] = target: DNA topoisomerase 2-alpha (Homo sapiens, UniProt P11388)
[4] = target: Serine/threonine-protein kinase ATR (Homo sapiens, UniProt Q13535)
UMP-CMP kinase = target: T1, UMP-CMP kinase (Homo sapiens, UniProt P30085)
T1 sequence (P30085 whole entry): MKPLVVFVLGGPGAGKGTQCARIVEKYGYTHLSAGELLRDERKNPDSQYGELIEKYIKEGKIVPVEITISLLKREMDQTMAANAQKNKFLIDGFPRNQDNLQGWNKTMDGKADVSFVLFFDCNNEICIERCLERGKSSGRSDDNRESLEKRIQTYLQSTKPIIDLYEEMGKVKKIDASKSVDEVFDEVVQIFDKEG

Focal adhesion kinase 1 = Focal adhesion kinase 1 (Homo sapiens, UniProt Q05397)
[5] = target: U5 small nuclear ribonucleoprotein 200 kDa helicase (Homo sapiens, UniProt O75643)
Sequence of U5 small nuclear ribonucleoprotein 200 kDa helicase (O75643 whole entry): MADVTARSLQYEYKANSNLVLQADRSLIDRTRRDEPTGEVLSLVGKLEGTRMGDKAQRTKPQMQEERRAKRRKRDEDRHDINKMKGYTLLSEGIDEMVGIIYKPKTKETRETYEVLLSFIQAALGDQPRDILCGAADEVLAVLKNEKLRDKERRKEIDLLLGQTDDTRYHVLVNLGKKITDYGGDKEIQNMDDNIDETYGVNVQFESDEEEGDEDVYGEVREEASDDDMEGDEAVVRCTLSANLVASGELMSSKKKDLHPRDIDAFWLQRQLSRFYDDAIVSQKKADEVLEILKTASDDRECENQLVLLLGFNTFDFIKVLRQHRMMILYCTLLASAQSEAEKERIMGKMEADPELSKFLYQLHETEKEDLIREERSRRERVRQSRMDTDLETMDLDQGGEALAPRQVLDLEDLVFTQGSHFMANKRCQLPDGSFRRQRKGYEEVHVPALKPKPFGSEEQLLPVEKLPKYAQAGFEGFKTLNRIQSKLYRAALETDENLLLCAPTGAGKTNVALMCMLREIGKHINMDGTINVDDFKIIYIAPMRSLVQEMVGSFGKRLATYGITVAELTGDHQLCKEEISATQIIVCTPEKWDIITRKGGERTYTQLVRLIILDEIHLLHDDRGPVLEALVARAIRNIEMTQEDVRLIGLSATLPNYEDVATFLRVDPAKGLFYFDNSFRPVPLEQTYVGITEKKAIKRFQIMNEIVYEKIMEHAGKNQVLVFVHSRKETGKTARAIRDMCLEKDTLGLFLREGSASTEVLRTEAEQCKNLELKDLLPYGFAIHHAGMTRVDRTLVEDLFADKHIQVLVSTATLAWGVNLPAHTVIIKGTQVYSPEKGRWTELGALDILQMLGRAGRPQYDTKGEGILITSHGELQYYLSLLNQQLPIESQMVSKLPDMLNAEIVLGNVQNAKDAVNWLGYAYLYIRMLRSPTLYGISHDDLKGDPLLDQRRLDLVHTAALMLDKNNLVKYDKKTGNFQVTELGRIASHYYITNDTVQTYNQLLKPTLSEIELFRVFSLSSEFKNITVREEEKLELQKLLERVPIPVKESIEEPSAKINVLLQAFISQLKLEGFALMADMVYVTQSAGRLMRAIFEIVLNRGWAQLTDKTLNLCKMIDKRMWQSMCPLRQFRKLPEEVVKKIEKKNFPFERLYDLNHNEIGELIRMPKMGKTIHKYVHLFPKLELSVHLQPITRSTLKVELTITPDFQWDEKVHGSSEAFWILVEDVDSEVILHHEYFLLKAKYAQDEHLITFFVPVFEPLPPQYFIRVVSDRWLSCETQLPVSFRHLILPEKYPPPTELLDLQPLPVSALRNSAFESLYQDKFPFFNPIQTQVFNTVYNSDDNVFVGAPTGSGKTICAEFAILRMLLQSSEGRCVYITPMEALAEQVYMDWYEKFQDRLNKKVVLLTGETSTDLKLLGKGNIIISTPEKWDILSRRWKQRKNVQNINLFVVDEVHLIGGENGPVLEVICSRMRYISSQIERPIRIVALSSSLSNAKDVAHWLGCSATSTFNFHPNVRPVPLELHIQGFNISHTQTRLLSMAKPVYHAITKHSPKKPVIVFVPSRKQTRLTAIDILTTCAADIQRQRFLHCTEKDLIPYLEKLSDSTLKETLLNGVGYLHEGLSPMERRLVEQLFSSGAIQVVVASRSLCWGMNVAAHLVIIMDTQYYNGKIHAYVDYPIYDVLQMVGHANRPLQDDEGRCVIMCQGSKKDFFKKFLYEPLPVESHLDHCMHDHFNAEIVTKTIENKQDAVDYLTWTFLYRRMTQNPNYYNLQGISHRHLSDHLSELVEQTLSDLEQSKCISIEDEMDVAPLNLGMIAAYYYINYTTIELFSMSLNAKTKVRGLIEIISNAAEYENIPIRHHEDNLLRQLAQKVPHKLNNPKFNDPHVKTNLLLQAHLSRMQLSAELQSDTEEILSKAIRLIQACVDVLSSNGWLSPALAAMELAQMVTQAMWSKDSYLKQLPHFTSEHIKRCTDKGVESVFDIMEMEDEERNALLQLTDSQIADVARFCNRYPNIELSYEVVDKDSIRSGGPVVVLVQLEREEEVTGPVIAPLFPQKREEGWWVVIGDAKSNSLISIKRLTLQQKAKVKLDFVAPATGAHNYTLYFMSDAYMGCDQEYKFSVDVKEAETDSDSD

[6] = target: Receptor-interacting serine/threonine-protein kinase 3 (Homo sapiens, UniProt Q9Y572)
Sequence of Receptor-interacting serine/threonine-protein kinase 3 (Q9Y572 whole entry): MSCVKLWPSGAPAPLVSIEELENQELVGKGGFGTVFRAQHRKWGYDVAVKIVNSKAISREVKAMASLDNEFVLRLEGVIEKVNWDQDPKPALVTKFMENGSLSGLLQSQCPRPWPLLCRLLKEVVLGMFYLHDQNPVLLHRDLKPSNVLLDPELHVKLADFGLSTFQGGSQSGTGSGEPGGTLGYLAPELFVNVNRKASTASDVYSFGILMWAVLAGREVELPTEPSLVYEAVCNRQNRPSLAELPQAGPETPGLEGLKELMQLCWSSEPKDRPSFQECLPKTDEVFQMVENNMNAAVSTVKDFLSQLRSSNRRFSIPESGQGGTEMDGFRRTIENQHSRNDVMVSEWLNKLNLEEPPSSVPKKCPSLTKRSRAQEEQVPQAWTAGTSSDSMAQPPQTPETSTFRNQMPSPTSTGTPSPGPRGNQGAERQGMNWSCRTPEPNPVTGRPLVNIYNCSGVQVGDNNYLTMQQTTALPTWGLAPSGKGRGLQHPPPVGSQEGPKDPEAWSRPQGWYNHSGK

[7] = target: T2, Dual specificity mitogen-activated protein kinase kinase 5 (Homo sapiens, UniProt Q13163)
T2 sequence (Q13163 whole entry): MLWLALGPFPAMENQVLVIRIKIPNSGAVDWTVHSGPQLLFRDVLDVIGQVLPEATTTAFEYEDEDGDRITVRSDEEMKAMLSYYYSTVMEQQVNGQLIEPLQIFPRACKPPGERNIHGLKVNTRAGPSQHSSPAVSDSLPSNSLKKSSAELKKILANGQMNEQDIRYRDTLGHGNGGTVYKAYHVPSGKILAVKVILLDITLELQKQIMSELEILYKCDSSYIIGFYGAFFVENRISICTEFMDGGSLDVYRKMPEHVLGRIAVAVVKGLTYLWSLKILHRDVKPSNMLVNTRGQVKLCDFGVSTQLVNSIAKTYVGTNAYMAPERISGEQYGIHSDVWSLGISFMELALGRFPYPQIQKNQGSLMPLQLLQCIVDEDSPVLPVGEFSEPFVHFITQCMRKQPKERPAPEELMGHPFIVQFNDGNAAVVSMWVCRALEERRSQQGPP

[8] = target: Serine/threonine-protein kinase MRCK alpha (Homo sapiens, UniProt Q5VT25)
Sequence of Serine/threonine-protein kinase MRCK alpha (Q5VT25 whole entry): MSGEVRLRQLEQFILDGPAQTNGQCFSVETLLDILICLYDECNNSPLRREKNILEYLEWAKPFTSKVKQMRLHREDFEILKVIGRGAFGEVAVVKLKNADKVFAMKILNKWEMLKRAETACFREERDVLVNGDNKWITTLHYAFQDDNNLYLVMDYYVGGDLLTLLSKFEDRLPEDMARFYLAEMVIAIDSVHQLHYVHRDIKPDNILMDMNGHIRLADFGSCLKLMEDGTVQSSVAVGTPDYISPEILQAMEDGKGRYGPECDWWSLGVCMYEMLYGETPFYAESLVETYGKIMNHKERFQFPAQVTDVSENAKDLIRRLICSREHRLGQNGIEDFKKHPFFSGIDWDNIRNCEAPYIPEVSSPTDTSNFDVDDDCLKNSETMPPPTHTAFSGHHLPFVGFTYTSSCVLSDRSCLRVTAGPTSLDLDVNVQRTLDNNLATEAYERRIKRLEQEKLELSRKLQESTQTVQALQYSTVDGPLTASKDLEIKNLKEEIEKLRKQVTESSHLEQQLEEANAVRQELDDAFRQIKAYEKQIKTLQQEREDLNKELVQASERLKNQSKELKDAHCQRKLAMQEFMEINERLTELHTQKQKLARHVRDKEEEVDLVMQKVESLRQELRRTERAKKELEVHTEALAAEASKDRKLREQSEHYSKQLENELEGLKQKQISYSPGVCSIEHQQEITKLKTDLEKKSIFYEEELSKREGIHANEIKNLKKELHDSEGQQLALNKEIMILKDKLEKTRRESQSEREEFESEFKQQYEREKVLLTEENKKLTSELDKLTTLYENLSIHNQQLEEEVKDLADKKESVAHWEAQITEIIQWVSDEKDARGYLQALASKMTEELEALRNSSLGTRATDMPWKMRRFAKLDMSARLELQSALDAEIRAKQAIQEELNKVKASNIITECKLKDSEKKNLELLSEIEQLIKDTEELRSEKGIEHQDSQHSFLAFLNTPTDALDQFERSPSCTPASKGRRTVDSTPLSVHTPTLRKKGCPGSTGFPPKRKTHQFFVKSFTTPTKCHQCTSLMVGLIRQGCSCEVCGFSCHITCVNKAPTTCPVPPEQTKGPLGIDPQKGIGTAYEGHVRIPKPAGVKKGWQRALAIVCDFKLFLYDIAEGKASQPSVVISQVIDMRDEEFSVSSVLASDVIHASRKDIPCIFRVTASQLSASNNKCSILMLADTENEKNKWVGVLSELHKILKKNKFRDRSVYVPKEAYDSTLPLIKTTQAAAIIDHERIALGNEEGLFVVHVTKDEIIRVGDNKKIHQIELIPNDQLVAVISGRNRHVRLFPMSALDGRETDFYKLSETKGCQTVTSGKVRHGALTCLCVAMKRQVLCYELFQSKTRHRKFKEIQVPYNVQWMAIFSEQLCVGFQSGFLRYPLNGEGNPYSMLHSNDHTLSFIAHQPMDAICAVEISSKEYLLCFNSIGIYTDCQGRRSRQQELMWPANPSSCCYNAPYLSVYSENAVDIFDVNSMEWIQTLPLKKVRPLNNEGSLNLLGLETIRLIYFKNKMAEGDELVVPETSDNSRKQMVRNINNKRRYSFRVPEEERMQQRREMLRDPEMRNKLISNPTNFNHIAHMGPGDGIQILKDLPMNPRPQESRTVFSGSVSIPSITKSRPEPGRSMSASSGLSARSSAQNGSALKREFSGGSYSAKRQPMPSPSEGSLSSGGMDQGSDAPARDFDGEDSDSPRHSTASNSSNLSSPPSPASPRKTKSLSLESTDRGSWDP

[9] = target: Serine/threonine-protein kinase MRCK gamma (Homo sapiens, UniProt Q6DT37)
[10] = target: Cyclin-dependent kinase 17 (Homo sapiens, UniProt Q00537)
Sequence of Cyclin-dependent kinase 17 (Q00537 whole entry): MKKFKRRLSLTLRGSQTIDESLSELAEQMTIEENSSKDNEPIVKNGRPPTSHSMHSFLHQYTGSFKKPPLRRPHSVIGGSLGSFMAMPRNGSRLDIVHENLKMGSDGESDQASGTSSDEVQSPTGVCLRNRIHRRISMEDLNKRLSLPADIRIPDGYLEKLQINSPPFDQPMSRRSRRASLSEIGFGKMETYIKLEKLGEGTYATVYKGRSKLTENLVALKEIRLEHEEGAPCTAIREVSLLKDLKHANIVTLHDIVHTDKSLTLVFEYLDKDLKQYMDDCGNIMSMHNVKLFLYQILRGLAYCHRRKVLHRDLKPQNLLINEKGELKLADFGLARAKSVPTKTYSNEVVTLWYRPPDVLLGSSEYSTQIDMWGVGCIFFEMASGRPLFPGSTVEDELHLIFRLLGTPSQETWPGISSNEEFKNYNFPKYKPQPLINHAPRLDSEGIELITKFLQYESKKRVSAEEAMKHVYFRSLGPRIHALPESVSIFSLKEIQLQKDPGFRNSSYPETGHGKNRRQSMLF

[11] = target: T3, Thyroid hormone receptor-associated protein 3 (Homo sapiens, UniProt Q9Y2W1)
T3 sequence (Q9Y2W1 whole entry): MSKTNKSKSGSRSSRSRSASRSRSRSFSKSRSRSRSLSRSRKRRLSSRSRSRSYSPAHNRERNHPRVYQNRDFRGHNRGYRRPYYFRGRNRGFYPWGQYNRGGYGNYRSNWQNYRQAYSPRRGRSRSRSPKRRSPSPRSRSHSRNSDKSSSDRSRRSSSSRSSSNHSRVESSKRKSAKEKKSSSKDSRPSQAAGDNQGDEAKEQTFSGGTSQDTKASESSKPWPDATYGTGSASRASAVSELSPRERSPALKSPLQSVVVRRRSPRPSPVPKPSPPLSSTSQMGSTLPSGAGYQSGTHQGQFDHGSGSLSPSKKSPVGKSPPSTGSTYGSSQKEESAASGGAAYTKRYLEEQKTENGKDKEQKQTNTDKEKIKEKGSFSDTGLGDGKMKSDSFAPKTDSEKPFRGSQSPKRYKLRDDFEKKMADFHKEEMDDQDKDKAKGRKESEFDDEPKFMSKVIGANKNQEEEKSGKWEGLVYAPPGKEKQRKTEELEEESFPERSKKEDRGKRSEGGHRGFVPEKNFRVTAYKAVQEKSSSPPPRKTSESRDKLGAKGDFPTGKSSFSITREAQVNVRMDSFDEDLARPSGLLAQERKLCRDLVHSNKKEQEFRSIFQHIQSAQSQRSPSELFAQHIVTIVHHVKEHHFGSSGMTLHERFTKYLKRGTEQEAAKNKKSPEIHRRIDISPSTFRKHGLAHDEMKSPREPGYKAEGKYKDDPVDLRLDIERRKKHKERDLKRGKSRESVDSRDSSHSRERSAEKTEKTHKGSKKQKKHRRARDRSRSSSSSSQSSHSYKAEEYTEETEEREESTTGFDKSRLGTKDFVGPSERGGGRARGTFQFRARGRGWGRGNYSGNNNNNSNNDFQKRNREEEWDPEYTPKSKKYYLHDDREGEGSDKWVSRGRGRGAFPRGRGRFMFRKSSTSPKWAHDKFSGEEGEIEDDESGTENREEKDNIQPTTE
Note: in the data inactive means no Kd found up to 30 µM.

Kd [1] | Kd [2] | Kd [3] | Kd [4] | Kd (UMP-CMP kinase) | Kd (Focal adhesion kinase 1) | Kd [5] | Kd [6] | Kd [7] | Kd [8] | Kd [9] | Kd [10] | Kd [11] | Compound
> 30 µM (inactive) | > 30 µM (inactive) | > 30 µM (inactive) | > 30 µM (inactive) | > 30 µM (inactive) | > 30 µM (inactive) | > 30 µM (inactive) | > 30 µM (inactive) | > 30 µM (inactive) | > 30 µM (inactive) | > 30 µM (inactive) | > 30 µM (inactive) | > 30 µM (inactive) | COc1ccc2c(OCc3nnc4ccc(-c5ccccc5)nn34)ccnc2c1 [AMG-208]
> 30 µM (inactive) | > 30 µM (inactive) | > 30 µM (inactive) | > 30 µM (inactive) | > 30 µM (inactive) | 0.191 µM (active) | > 30 µM (inactive) | > 30 µM (inactive) | > 30 µM (inactive) | > 30 µM (inactive) | > 30 µM (inactive) | > 30 µM (inactive) | > 30 µM (inactive) | Cc1cc(Nc2nc(N[C@@H](C)c3ncc(F)cn3)ncc2Cl)n[nH]1 [AZD-1480]
> 30 µM (inactive) | > 30 µM (inactive) | > 30 µM (inactive) | > 30 µM (inactive) | > 30 µM (inactive) | > 30 µM (inactive) | > 30 µM (inactive) | > 30 µM (inactive) | > 30 µM (inactive) | > 30 µM (inactive) | > 30 µM (inactive) | > 30 µM (inactive) | > 30 µM (inactive) | Cc1ccc(C(=O)Nc2ccc(Oc3cc4cnn(C)c4cc3-c3cn[nH]c3)c(F)c2)c(=O)n1-c1ccc(F)cc1 [MERESTINIB]

More lines, now with the values behind:

Compound | Kd [1] | Kd [2] | Kd [3] | Kd [4] | Kd (UMP-CMP kinase) | Kd (Focal adhesion kinase 1) | Kd [5] | Kd [6] | Kd [7] | Kd [8] | Kd [9] | Kd [10] | Kd [11]
Cn1cc(-c2[nH]c3cc(NC(=O)[C@H](N)C4CCCCC4)cc4c3c2C=NNC4=O)cn1 | > 30 µM (inactive) | > 30 µM (inactive) | > 30 µM (inactive) | > 30 µM (inactive) | > 30 µM (inactive) | > 30 µM (inactive) | > 30 µM (inactive) | > 30 µM (inactive) | 2.19 µM (active) | > 30 µM (inactive) | > 30 µM (inactive) | > 30 µM (inactive) | –
Cc1c(Cn2c(C)nc3c(C(=O)O)cc(N4CCOCC4)cc32)cccc1C(F)(F)F [GSK-2636771] | > 30 µM (inactive) | > 30 µM (inactive) | > 30 µM (inactive) | > 30 µM (inactive) | > 30 µM (inactive) | > 30 µM (inactive) | > 30 µM (inactive) | > 30 µM (inactive) | > 30 µM (inactive) | > 30 µM (inactive) | > 30 µM (inactive) | > 30 µM (inactive) | > 30 µM (inactive)
O=S(=O)(c1cccc2c(O)nccc12)N1CCCNCC1 [HYDROXYFASUDIL] | > 30 µM (inactive) | > 30 µM (inactive) | > 30 µM (inactive) | > 30 µM (inactive) | > 30 µM (inactive) | – | > 30 µM (inactive) | > 30 µM (inactive) | > 30 µM (inactive) | > 30 µM (inactive) | > 30 µM (inactive) | > 30 µM (inactive) | > 30 µM (inactive)
C#Cc1cccc(Nc2ncnc3cc4c(cc23)OCCOCCOCCO4)c1 [ICOTINIB] | > 30 µM (inactive) | > 30 µM (inactive) | > 30 µM (inactive) | > 30 µM (inactive) | > 30 µM (inactive) | > 30 µM (inactive) | > 30 µM (inactive) | > 30 µM (inactive) | > 30 µM (inactive) | > 30 µM (inactive) | > 30 µM (inactive) | > 30 µM (inactive) | > 30 µM (inactive)
